Measured values as given in patent US9650339B2, “Inhibitors of histone demethylases” (Gilead Sciences, Inc., priority 2013, dated 2017).

How the values were obtained:
MCF7 cells = assay: Cell proliferation assay MCF7; format: cell-based; conditions: MCF7 human breast cancer cells; 120 hours; ATPlite 1 Step
Summary of the method: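 Cells grown 24 h in DMEM GlutaMAX/10% FBS, then exposed to compounds in duplicate (≤0.5% DMSO) for 120 h. Viability read as ATP luminescence (ATPlite 1 Step). Seeding set to reach ~90% confluence at harvest.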

KDM5B = target: T1, KDM5B (Homo sapiens, UniProt Q9UGL1); assay: Histone lysine demethylase immunofluorescence assay, U2OS cells transfected with KDM5B; format: cell-based; conditions: U2OS cells transfected with pCMVHA KDM5B; mark detected H3K4me2; 20 hours
T1 construct: (a.a. 1-752); host or cells: U2OS
T1 sequence (Q9UGL1 1-752): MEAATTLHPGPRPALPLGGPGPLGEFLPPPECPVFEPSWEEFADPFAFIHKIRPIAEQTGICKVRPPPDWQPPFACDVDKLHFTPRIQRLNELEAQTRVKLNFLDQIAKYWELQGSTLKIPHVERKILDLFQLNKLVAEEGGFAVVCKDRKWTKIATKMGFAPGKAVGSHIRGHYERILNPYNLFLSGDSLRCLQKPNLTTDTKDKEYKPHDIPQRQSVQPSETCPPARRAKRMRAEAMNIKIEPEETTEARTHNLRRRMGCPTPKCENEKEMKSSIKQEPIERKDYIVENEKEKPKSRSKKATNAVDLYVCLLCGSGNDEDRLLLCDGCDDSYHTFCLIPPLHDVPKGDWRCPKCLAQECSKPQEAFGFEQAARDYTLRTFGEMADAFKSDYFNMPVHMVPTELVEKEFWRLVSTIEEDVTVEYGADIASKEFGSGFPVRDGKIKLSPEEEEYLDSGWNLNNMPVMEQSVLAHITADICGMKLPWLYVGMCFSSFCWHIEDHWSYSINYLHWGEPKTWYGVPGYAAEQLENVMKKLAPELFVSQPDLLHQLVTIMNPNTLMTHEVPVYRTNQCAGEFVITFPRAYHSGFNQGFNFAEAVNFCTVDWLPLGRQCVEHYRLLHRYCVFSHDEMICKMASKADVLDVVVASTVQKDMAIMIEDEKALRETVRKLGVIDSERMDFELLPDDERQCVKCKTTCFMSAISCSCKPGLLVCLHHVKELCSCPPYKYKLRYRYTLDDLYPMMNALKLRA
Summary of the method: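 U2OS cells were transiently transfected with HA-tagged demethylase and reseeded after 6 h into compound-containing DMEM/10% FBS for 20 h. Cells were fixed in formaldehyde and immunostained for HA and the relevant histone methyl mark, then imaged. IC50 is based on mean mark staining in HA+ transfected cells.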

KDM2B (FBXL10) = target: T2, KDM2B (FBXL10) (Homo sapiens, UniProt Q8NHM5); assay: Histone lysine demethylase AlphaLISA assay, KDM2B; format: biochemical; conditions: read-out: KDM2B HDME Inhibition IC50
T2 sequence (Q8NHM5 1-650): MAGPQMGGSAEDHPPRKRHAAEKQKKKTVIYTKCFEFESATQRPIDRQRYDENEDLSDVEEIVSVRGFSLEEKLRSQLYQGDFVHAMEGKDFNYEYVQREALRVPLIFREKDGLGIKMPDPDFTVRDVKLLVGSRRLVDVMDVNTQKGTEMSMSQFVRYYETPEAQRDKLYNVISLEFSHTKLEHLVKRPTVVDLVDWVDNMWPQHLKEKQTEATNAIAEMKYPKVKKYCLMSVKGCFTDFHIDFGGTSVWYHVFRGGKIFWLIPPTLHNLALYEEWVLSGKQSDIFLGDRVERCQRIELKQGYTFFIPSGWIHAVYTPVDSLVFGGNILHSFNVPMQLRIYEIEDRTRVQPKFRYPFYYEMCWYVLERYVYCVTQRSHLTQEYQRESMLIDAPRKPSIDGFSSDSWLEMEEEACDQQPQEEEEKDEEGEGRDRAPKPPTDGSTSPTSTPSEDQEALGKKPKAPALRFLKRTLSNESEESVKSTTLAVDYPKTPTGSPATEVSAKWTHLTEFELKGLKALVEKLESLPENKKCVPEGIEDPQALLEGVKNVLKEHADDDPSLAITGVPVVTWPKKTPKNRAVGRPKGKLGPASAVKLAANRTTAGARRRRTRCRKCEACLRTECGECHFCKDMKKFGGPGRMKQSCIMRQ
Summary of the method: (§1)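 Steps: enzyme equilibrated 10 min in buffer; compounds in 3% DMSO solution added, 10 min; substrate mix added (peptide, 25 μM L-Asc, 10 μM α-KG), room temperature; acceptor beads, then streptavidin donor beads, dark incubations; plate read.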

KDM5C (JARID1C) = target: T3, KDM5C (JARID1C) (Homo sapiens, UniProt P41229); assay: Histone lysine demethylase AlphaLISA assay, KDM5C; format: biochemical; conditions: read-out: KDM5C HDME Inhibition IC50
T3 construct: 2-1560; purchased BPS; host or cells: Bac (baculovirus system)
T3 sequence (P41229 2-1560): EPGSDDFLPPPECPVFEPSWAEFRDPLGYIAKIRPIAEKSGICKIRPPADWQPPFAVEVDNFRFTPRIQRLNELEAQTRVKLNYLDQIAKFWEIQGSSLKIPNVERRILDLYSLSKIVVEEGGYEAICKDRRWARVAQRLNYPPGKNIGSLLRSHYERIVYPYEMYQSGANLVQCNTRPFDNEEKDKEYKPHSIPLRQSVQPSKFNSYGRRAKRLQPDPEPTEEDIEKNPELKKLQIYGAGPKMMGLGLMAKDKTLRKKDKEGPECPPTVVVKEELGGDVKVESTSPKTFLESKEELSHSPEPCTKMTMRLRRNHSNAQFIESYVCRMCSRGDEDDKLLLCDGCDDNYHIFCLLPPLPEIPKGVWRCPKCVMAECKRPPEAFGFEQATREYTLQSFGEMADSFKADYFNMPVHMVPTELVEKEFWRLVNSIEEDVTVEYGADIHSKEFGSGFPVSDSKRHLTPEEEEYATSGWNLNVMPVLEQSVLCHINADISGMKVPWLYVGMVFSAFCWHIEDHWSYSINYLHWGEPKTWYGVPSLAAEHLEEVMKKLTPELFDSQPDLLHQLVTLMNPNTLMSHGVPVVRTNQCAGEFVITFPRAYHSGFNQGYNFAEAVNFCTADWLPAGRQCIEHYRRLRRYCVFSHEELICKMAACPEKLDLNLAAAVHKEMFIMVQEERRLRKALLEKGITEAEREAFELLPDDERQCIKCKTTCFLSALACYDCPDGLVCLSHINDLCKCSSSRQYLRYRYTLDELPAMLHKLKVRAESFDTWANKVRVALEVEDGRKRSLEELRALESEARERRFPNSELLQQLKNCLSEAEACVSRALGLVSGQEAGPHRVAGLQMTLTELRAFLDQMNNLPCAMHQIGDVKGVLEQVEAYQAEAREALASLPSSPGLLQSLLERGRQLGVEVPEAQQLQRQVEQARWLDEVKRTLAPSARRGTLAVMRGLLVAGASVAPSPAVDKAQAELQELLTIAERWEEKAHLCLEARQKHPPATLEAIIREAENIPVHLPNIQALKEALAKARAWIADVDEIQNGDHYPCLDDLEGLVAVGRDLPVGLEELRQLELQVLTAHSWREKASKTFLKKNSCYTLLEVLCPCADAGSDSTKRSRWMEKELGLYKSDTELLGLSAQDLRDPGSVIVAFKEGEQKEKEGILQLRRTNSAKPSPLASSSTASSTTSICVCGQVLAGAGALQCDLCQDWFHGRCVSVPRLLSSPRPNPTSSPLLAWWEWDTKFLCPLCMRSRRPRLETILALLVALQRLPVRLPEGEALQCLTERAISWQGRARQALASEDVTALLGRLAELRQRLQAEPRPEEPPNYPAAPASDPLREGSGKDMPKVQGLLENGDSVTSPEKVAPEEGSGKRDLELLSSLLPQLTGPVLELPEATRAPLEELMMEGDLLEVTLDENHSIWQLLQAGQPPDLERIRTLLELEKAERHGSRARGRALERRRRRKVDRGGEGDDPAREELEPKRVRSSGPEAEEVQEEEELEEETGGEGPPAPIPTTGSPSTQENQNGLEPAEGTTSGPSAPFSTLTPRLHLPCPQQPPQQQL
Summary of the method: as §1

Row | EC50 (MCF7 cells) [nM] | IC50 (KDM5B) [nM] | IC50 (KDM2B (FBXL10)) [nM] | IC50 (KDM5C (JARID1C)) [nM] | SMILES
1 | – | – | > 2500 | – | CN(C)CCNCc1ccnc(CNCCCN(C)Cc2ccccc2)c1 [Compound 18, benzyl[3-({[4-({[2-(dimethylamino)ethyl]-amino}methyl)pyridin-2-yl]methyl}-amino)propyl]-methylamine]
2 | – | > 2500 | > 2500 | > 2500 | COCCNCc1ccnc(CNCCCN(C)Cc2ccccc2)c1 [Compound 19, benzyl(3-{[(4-{[(2-methoxyethyl)amino]-methyl}pyridin-2-yl)methyl]amino}-propyl)methylamine]
3 | – | 250 to 2500 | – | – | O=Cc1ccnc(CNCCCCN(Cc2ccccc2)C2CC2)c1 [Compound 109, 2-[({4-[benzyl-(cyclopropyl)amino]-butyl}amino)methyl]-pyridine-4-carbaldehyde]

More lines, now with the values behind:

Row | SMILES | EC50 (MCF7 cells) [nM] | IC50 (KDM5B) [nM] | IC50 (KDM2B (FBXL10)) [nM] | IC50 (KDM5C (JARID1C)) [nM]
4 | CN(C)CCCCNCc1cc(CN)ccn1 [Compound 2, [2-({[4-(dimethylamino)butyl]-amino}methyl)pyridin-4-yl]methanamine] | < 250 | < 250 | > 2500 | –
5 | COc1ccccc1CN1CCC(NC(=O)CNCc2cc(CNC3CC3)ccn2)CC1 [Compound 20, 2-[({4-[(cyclopropylamino)-methyl]pyridin-2-yl}methyl)amino]-N-{1-[(2-methoxyphenyl)methyl]-piperidin-4-yl}acetamide] | – | 250 to 2500 | > 2500 | < 250
6 | CCN(CCN(C)C)C(=O)CN(Cc1cc(CNC(=O)C(F)(F)F)ccn1)C(=O)C(F)(F)F [Compound 26, N-[(2-{[N-({[2-(dimethylamino)ethyl]-(ethyl)carbamoyl}-methyl)-2,2,2-trifluoroacetamido]-methyl}pyridin-4-yl)methyl]-2,2,2-trifIuoroacetamide] | < 250 | < 250 | – | –
7 | COC(=O)CNCc1cc(/C=N/C2CC2)ccn1 [Compound 59, methyl 2-[({4-[N-cyclopropyl-carboximidoyl]pyridin-2-yl}methyl)amino]-acetate] | – | > 2500 | – | < 250
8 | CCN(CC)CCCCNCc1cc(C2NCCCN2C)ccn1 (stereo not shown) [Compound 68, [4-(diethylamino)butyl]({[4-(1-methyl-1,3-diazinan-2-yl)pyridin-2-yl]methyl})amine] | < 250 | < 250 | – | –
9 | O=Cc1ccnc(CNCC(=O)NC2CCN(Cc3ccccc3)C2)c1 (stereo not shown) [Compound 113, N-(1-benzylpyrrolidin-3-yl)-2-{[(4-formylpyridin-2-yl)methyl]amino}-acetamide] | – | > 2500 | – | 250 to 2500
